The subject of the experiment is 3T3-L1 cells. As to the kind of experiment: Adipocyte differentiation (fat accumulation) measurement by Oil Red-O staining. The class given is cell-based, mouse. Conditions: for adipocyte differentiation inhibitory activity depending on the treatment concentration: 3T3-L1 cells, Oil Red O staining; for inhibition at 20 µg/mL: Mus musculus, 20 μg/ml, the highest concentration in the experiment, 3T3-L1 differentiation, Oil Red O, read-out: effect of inhibiting adipogenesis. How it is done:
3T3-L1 cells, a mouse-derived preadipocyte, were purchased from the Korean Cell Line Bank and used. 3T3-L1 cells were cultured in a 37° C.-wet CO2 incubator (5% CO2/95% air) using a cell culture medium (complete DMEM culture medium) in which 10% bovine calf serum (BCF), 100 units/mL penicillin, and 100 μg/mL streptomycin were added to a DMEM medium (Welgene). When the cells were 80% full of the culture dish, the cell monolayer was washed with phosphate buffer saline (PBS, pH 7.4), and then the cells were detached by adding trypsin-2.65 mM EDTA and subcultured, and the medium was exchanged every 2 days.
3T3-L1 cells were seeded onto 24-well plate at a concentration of 1×10^5 cells/well. After the cells reached the confluence state, the cell culture medium was sequentially exchanged with three kinds of differentiation-inducing cultures (DM), and the cells were cultured to induce differentiation into adipocytes. That is, the cell culture medium was exchanged with a differentiation-inducing culture medium in which DMI (1 μM dexamethasone, 0.5 mM 3-isobutyl-1-methylxanthine (IBMX), […]) was added to a DMEM medium containing 10% FBS to stimulate differentiation for 2 days. After 2 days, the cells were exchanged for a new differentiation-inducing culture medium in which 5 μg/mL insulin was added to DMEM medium containing 10% FBS to stimulate differentiation for another 2 days. After stimulating differentiation for a total of 4 days, cells were maintained in DMEM medium containing 10% FBS for 2 days to induce differentiation into adipocytes.
In order to investigate the effect of the test substance on adipocyte differentiation, the test substance was added to the differentiation-inducing culture medium and treated on the cells.
After treatment with the test substance while inducing differentiation of 3T3-L1 cells, the cells were rinsed with DPBS (Welgene), and then the cells were fixed at room temperature for 1 hour by adding 4% paraformaldehyde (PFA, Biosesang). After the cells were fixed, the cells were treated with oil red O (Sigma-Aldrich) solution and stained at room temperature for 1 to 2 hours. After observing the staining degree of adipocytes visually, the cells were rinsed with distilled water and observed for adipocytes through a microscope.

With `O=C1c2c(O)cc(O)cc2O[C@H](c2ccc(O)c(O)c2)[C@H]1OC1OC[C@@H](O)[C@@H](O)[C@@H]1O` (stereo partly drawn) [Taxifolin-3-O-arabinopyranoside, taxifolin-3-O-α-L-arabinopyranoside], the “adipocyte differentiation inhibitory activity depending on the treatment concentration” value is recorded as “increases in a concentration-dependent manner” and the inhibition at 20 µg/mL was no less than 40%.

On to `O=C1c2c(O)cc(O)cc2O[C@H](c2ccc(O)c(O)c2)[C@H]1O` [Taxifolin-aglycone, taxifolin], for which the “adipocyte differentiation inhibitory activity depending on the treatment concentration” value is listed as “increases in a concentration-dependent manner” and the inhibition at 20 µg/mL is no less than 40%.

The values above are taken from patent US20250352595A1, “PHARMACEUTICAL, FOOD, OR FEED COMPOSITION FOR PREVENTING OR TREATING MUSCLE LOSS CONTAINING RHODODENDRON MUCRONULATUM EXTRACT” (DR. OREGONIN INC., priority 2022, published 2025).
